Reference: patent EP2875815A1, “N'-(2-(3-oxobenzo[d]isothiazol-2(3h)-yl)acetyl)adamantane-1-carbohydrazide as a novel inhibitor for staphylococcus aureus sortase a” (Latvian Biomedical Research and Study Centre, priority 2013, dated 2015)
Converted amounts (≈) assume the structure as drawn. Where two headings read alike, the source gives them in different places.

Columns and labels:
NIH/3T3 cells = assay: Cytotoxicity (MTT cell growth inhibition) test; type: cell-based; details: Mus musculus, read-out: 50% NIH/3T3 cell growth inhibition concentration, (IC50)
Method: (§1) These assays included determination of 50% SrtA inhibition concentration (IC50) of the newly synthesized derivative in dose-response experiments using the recombinant sortase A enzyme incubated with FRET peptide substrate containing the LPETG motif, minimal inhibitory concentration (MIC) test with two staphylococcal species to measure the antimicrobial efficacy of the new inhibitory molecule, and toxicity test using a normal mouse embryonic fibroblasts cell line NIH/3T3 to determine the cell growth IC50 inhibitory concentration.
The growth inhibitory effect of the newly synthesized compound was studied on NIH/3T3mouse fibroblast cell line. NIH/3T3 cells were seeded into 96-well microplates with initial density of 1x10^4 cells per well in DMEM culture medium with 10% FCS. After 24 hours of incubation, cells were exposed to a graded series of concentrations of chemical compounds for additional 48 hours. The cell medium was removed and 100 µl of fresh culture medium without phenol red and 1 mM MTT solution was added to each well. After 3 hours of incubation, an equal volume of 1% SDS-HCl solution was added and plates were incubated for additional 4 hours. Absorbance was measured at 570 nm and the data were fitted to a four parameter variable slope equation to determine the IC50 value. […]

S. epidermidis = assay: MIC test, broth dilution micromethod; type: cell-based; details: Staphylococcus epidermidis; 24 hours at 37 °C, complete inhibition of cell growth
Method: as §1
(§2) The MIC values of test compounds that inhibited cell growth of Gram-positive Staphylococcus aureus and S. epidermidis were determined by broth dilution micromethod. A series of solutions with a range from 0.1 µg/ml to 400 µg/ml were made in using a logarithmical phase culture with OD600 = 0.1 (corresponds to ∼1.2 x 10^8 CFU/ml in 96-well plate standard. The plate was incubated at 37 °C for 24 hours and growth was assayed with a microplate reader by monitoring the absorption at 600 nm. All experiments were done in triplicate, and repeated three times.

Staphylococcus aureus = assay: MIC test, broth dilution micromethod; type: cell-based; details: for MIC: Staphylococcus aureus, 24 hours at 37 °C, complete inhibition of cell growth, read-out: MIC, S.aureus
Method: as §1, §2

S. aureus sortase A = target: T1, S. aureus sortase A (Staphylococcus aureus, UniProt Q2FV99); assay: SrtA enzyme FRET inhibition assay (recombinant sortase A, FRET peptide substrate with LPETG motif); type: biochemical; details: SrtA inhib. concentration, means ±SD (n = 5)
T1 construct: expressed with an N-terminal deletion of 59 amino acid residues (SrtAΔNS9, residues 60-206); made in house
Excerpt: The catalytically active recombinant sortase A enzyme used for these studies was expressed with an N-terminal deletion of 59 amino acid residues (SrtAΔNS9, residues 60-206). The first step included high-throughput screening of potent S. aereus SrtA inhibitors and selection of new antibacterial substances as sortase A inhibitors. In order to identify potent inhibitors of S. aureus sortase A, a high-throughput screening (HTS) of a diverse library of 50,000 drug-like low-molecular weight molecules was performed, which led to the identification of novel promising drug candidates.
as §1
Values are means ±SD (n = 5).

SrtA = target: T2, SrtA (Staphylococcus aureus, UniProt Q2FV99); assay: Binding to SrtA monitored by 2D [15N,1H]-HSQC NMR spectroscopy, with dialysis; details: 0.3 mM (1.0 equivalents) inhibitor, after dialysis against NMR sample buffer
T2 construct: expressed with an N-terminal deletion of 59 amino acid residues (SrtAΔNS9, residues 60-206); made in house
Excerpt: • Fig. 1 - represents the binding of a selected inhibitor N-(adamantan-1-yl)-2-(3-oxo-2,3-dihydro-1,2-benzothiazol-2-yl)acetamide to SrtA monitored by 2D [^15N,^1H]-HSQC NMR spectroscopy. (a) Spectrum of SrtA in absence of inhibitor. […] (a) SrtA active site after modification by inhibitor. The inhibitor (in cyan) and near-by side chains of SrtA are shown with sticks and labeled. Side chains are colored according to their type: hydrophobic in yellow, negatively charged in red, positively charged in blue and hydrophilic in grey. Hydrogens are omitted for clarity. […] (c) Molecular surface representation of SrtA in complex with inhibitor. It can be seen in the figure that the inhibitor occupies almost all volume of the substrate pocket, the majority of interactions are hydrophobic and hydrogen bond is at the R139.
Determination of the complex structure of selected inhibitor and sortase enzyme was performed by using the nuclear magnetic resonance (NMR) spectroscopy methods. The collected NMR data allowed to specify the structure of inhibitory complexes.
To verify that the selected inhibitor can react with a cysteine thiol (such as the SrtA active site C 184) we performed a reaction with cysteine in the NMR tube and observed the formation of a covalent adduct (Figure 2). The chemical structure of the product was verified using proton 1D and 2D NMR methods.

T1 sequence (Q2FV99 60-206): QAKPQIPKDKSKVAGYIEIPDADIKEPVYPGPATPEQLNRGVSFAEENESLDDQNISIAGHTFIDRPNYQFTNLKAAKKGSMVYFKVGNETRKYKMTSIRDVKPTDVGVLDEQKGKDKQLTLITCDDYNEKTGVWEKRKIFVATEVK
T2 sequence (Q2FV99 60-206): as above

SMILES	IC50 (NIH/3T3 cells; NIH3T3, 48 hours exposure, MTT, mean of three independent experiments ±SD) [µg/mL]	MIC (S. epidermidis) [µg/mL]	MIC (Staphylococcus aureus) [µg/mL]	MIC values of the new compound in comparison to the initial hit molecule (Staphylococcus aureus; average over S. aureus and S. epidermidis) [fold]	IC50 (S. aureus sortase A) [µM]	IC50 (NIH/3T3 cells; NIH3T3, 48 h) [µg/mL]	binding of inhibitor to SrtA (reversibility) (SrtA)
O=C(Cn1sc2ccccc2c1=O)NNC(=O)C12CC3CC(CC(C3)C1)C2 [N'-(2-(3-oxobenzo[d]isothiazol-2(3H)-yl)acetyl)adamantane-1-carbohydrazide]	12.1 (≈ 31.4 µM)	4 (≈ 10.4 µM)	16 (≈ 41.5 µM)	~10	3.8		
O=C(Cn1sc2ccccc2c1=O)NC12CC3CC(CC(C3)C1)C2 [N-(adamantan-1-yl)-2-(3-oxo-2,3-dihydro-1,2-benzothiazol-2-yl)acetamide]		0.5 (≈ 1.46 µM)	1 (≈ 2.92 µM)		6.2	1.3 (≈ 3.8 µM)	irreversibly
